# Data taken from patent publication US20090068646A1, “METHODS AND KITS FOR DETECTING MUTATIONS” (PROMEGA CORPORATION, priority 2004, published 2009).
# Read-outs that look alike come from different tables or passages of the source.
# How the values were obtained:
# Assay type in all cases: in vivo, C75BL/6 mice
# mononucleotide repeats [1] = conditions: 50 mg/kg intraperitoneal, liver DNA
# Procedure: (§1) Treatment of mice used in paraquat studies. […] mice were housed and inbred at the University of Wisconsin, with an average life span 30 months. Four groups of three mice were included in the study: 5-month old mice (young control or YC); 5-month old mice treated with paraquat; 24-month old mice (old age); and 24-month old mice treated with paraquat. Paraquat-treated animals received a single intraperitoneal injection of 50 mg/kg body weight dissolved in PBS 24 hours after their last feeding. Each mouse was sacrificed by cervical dislocation.
# (§2) Tissue Preparation, DNA Extraction and Quantification. The entire liver from each mouse was dissected, washed with PBS, placed in a 1.5 ml Ependorf tube, snap frozen in liquid nitrogen, and stored at −80° C. DNA was prepared from the mouse liver tissue by using the DNA-IQ Tissue and Hair Extraction Kit (Promega Corporation, Madison, Wis.) and was quantified using the PicoGreen dsDNA Quantitative Kit (Molecular Probes, Eugene, Oreg.) following manufacturers protocols.
# Detection of Mutations in Microsatellites using small pool PCR. […] The stability of four short mononucleotide repeats (mBAT-24, mBAT-26, mBat-30, mBAT-37) and three extended mononucleotide repeats (mBAT-59, mBAT-64 and mBAT-67) were evaluated.
# SP-PCR was performed for mutation analysis using 1-2 copies of genomic DNA (6-12 pg). PCR cycles and conditions are the same as described above except that the annealing temperature was 58° C.
# Identification of PCR Products. Separation and detection of amplified fragments was performed on an ABI PRISM® 3100 Genetic Analyzer following the manufacturer's protocol (Applied Biosystems, Foster City, Calif.). Data was analyzed with the GeneScan and Genotyper computer software packages (Applied Biosystems).
# Statistical Analysis. Statistical analysis was done using the statistical Package Sigma Stat version 3, where P value was determined by using one-way ANOVA for each specific group, using Holm-Sidak method did comparisons between the groups.
# mtDNA = conditions: old age paraquat-treated group, three mice
# Procedure: as §1, §2
# mtDNA Deletion Detection. Based on the mouse mtDNA sequence, four fluorescence labeled primer pairs were designed to detect both wildtype sequences and mtDNA deletions.
# PCR Conditions. […]
# Identification of PCR Products. […] Data was analyzed with the GeneScan and Genotyper computer software packages (Applied Biosystems).
# mononucleotide repeats [2] = conditions: for Mutation Freq / # Mutants: 50 mg/kg intraperitoneal, liver DNA
# [3] = marker mBat-24, Old w/Paraquat (24-month old mice)
# [4] = marker mBat-26, Young w/Paraquat (5-month old mice)
# [5] = marker mBat-30, Old w/Paraquat (24-month old mice)
# [6] = marker mBat-30, Young w/Paraquat (5-month old mice)
# [7] = marker mBat-59, Old w/Paraquat (24-month old mice)
# [8] = marker mBat-64, Young w/Paraquat (5-month old mice)
# [9] = marker mBat-67, Young w/Paraquat (5-month old mice)
# [10] = marker mBat-24, Young w/Paraquat (5-month old mice)
# [11] = marker mBat-26, Old w/Paraquat (24-month old mice)
# [12] = marker mBat-37, Old w/Paraquat (24-month old mice)
# [13] = marker mBat-37, Young w/Paraquat (5-month old mice)
# [14] = marker mBat-49, Old w/Paraquat (24-month old mice)
# [15] = marker mBat-51a, Old w/Paraquat (24-month old mice)
# [16] = marker mBat-51b, Old w/Paraquat (24-month old mice)
# [17] = marker mBat-52, Old w/Paraquat (24-month old mice)
# [18] = marker mBat-59, Young w/Paraquat (5-month old mice)
# [19] = marker mBat-61a, Old w/Paraquat (24-month old mice)
# [20] = marker mBat-64, Old w/Paraquat (24-month old mice)
# [21] = marker mBat-66, Old w/Paraquat (24-month old mice)
# [22] = marker mBat-66, Young w/Paraquat (5-month old mice)
# [23] = marker mBat-67, Old w/Paraquat (24-month old mice)
# [24] = paraquat-treated old age group, loci mBAT-59, mBAT-64, mBAT-66 or mBAT-67 combined
smiles,measurement,setting,value
C[n+]1ccc(-c2cc[n+](C)cc2)cc1 [Paraquat],# Mutants,mononucleotide repeats [1]; [3],0
same,Mutation Freq,mononucleotide repeats [1]; [4],0.000
same,Mutation Freq,mononucleotide repeats [1]; [5],0.000
same,# Mutants,mononucleotide repeats [1]; [6],0
same,# Mutants,mononucleotide repeats [1]; [7],6
same,Mutation Freq,mononucleotide repeats [1]; [8],0
same,Mutation Freq,mononucleotide repeats [1]; [9],0
same,mice showing Δ-mtDNA4977,mtDNA,All three
same,Mutation Freq,mononucleotide repeats [2]; [3],0.000
same,# Mutants,mononucleotide repeats [2]; [10],1
same,Mutation Freq,mononucleotide repeats [2]; [10],0.002
same,# Mutants,mononucleotide repeats [2]; [11],0
same,Mutation Freq,mononucleotide repeats [2]; [11],0.000
same,# Mutants,mononucleotide repeats [2]; [4],0
same,# Mutants,mononucleotide repeats [2]; [5],0
same,Mutation Freq,mononucleotide repeats [2]; [6],0.000
same,# Mutants,mononucleotide repeats [2]; [12],0
same,Mutation Freq,mononucleotide repeats [2]; [12],0.000
same,# Mutants,mononucleotide repeats [2]; [13],1
same,Mutation Freq,mononucleotide repeats [2]; [13],0.001
same,# Mutants,mononucleotide repeats [2]; [14],0
same,Mutation Freq,mononucleotide repeats [2]; [14],0.000
same,# Mutants,mononucleotide repeats [2]; [15],0
same,Mutation Freq,mononucleotide repeats [2]; [15],0.000
same,# Mutants,mononucleotide repeats [2]; [16],0
same,Mutation Freq,mononucleotide repeats [2]; [16],0.000
same,# Mutants,mononucleotide repeats [2]; [17],0
same,Mutation Freq,mononucleotide repeats [2]; [17],0.000
same,Mutation Freq,mononucleotide repeats [2]; [7],0.013
same,# Mutants,mononucleotide repeats [2]; [18],4
same,Mutation Freq,mononucleotide repeats [2]; [18],0
same,# Mutants,mononucleotide repeats [2]; [19],2
same,Mutation Freq,mononucleotide repeats [2]; [19],0.005
same,# Mutants,mononucleotide repeats [2]; [20],8
same,Mutation Freq,mononucleotide repeats [2]; [20],0.019
same,# Mutants,mononucleotide repeats [2]; [8],1
same,# Mutants,mononucleotide repeats [2]; [21],8
same,Mutation Freq,mononucleotide repeats [2]; [21],0.018
same,# Mutants,mononucleotide repeats [2]; [22],3
same,Mutation Freq,mononucleotide repeats [2]; [22],0
same,# Mutants,mononucleotide repeats [2]; [23],20
same,Mutation Freq,mononucleotide repeats [2]; [23],0.051
same,# Mutants,mononucleotide repeats [2]; [9],1
same,"mutations detected in loci mBAT-24, mBAT-26, mBat-30, or mBAT-37","mononucleotide repeats [2]; old paraquat-treated group, short mononucleotide repeats combined",no mutations out of 1608 alleles
same,mutant alleles / alleles assayed,mononucleotide repeats [2]; [24],25/1649
same,mutations in mononucleotide repeat alleles assayed,mononucleotide repeats [2]; [24],over 1.8%
